Literature values in US20240148758A1, “CONTROLLED RELEASE FORMULATIONS OF HIGHLY LIPOPHILIC PHYSIOLOGICALLY ACTIVE SUBSTANCES” (ADD Advanced Drug Delivery Technologies Ltd., priority 2019, published 2024).

Settings: decimal logarithm of the n-octanol/water partition coefficient

Compound: C=C(C)[C@@H]1CCC(C)=C[C@H]1c1c(O)cc(CCCCC)cc1O [Canapure PH, 2-[1R-3-methyl-6R-(1-methylethenyl)-2-cyclohexen-1-yl]-5-pentyl-1,3-benzenediol]
- log P: about 6.1
